Assay results reported in PubChem BioAssay AID720671 (NMMLSC, 2013).
Activity calls are given as the source filed them. How the calls were made is not given here.

Target: Botulinum neurotoxin type F light chain protease (Clostridium botulinum)
Test: BoNT/F light chain protease inhibitors, dose response, biochemical, multiplex microsphere, Powder Set 03 (AID 720671)
Conditions: multiplex microsphere protease cleavage assay, BoNT/F LC

Compound	EC50
COc1ccc(-c2cn3nc(-c4ccc(F)cc4)c(-c4ccc(F)cc4)nc3n2)c(OC)c1	1.5 µM
Fc1ccc(-c2nc3nc(-c4cccc(F)c4)cn3nc2-c2ccc(F)cc2)cc1	5.7 µM
COc1ccc(-c2nc3nc(-c4ccccc4OC)cn3nc2-c2ccc(OC)cc2)cc1	5.2 µM
O=C(Nc1ccc2nc(-c3cccs3)c(-c3cccs3)nc2c1)NC1CCCC1	> 20 µM (inactive)
N#Cc1ccc(-c2cn3nc(-c4ccccc4)c(-c4ccccc4)nc3n2)cc1	> 20 µM (inactive)
COc1ccc(-c2nc3nc(-c4ccc(C)cc4)cn3nc2-c2ccc(OC)cc2)cc1	> 20 µM (inactive)
Cc1ccc(-c2nc3nc(-c4cccc(F)c4)cn3nc2-c2ccc(C)cc2)cc1	> 20 µM (inactive)
CCCS(=O)(=O)Nc1ccc2nc(-c3cccs3)c(-c3cccs3)nc2c1	> 20 µM (inactive)
CC(C)NC(=O)Nc1ccc2nc(-c3cccs3)c(-c3cccs3)nc2c1	> 20 µM (inactive)
Cc1ccc(-c2nc3nc(-c4ccccc4)cn3nc2-c2ccc(C)cc2)cc1	5.4 µM
COc1ccc(-c2nc3nc(-c4cccc(OC)c4)cn3nc2-c2ccc(OC)cc2)cc1	> 20 µM (inactive)
COc1ccc(-c2nc3nc(-c4ccc(S(C)(=O)=O)cc4)cn3nc2-c2ccc(OC)cc2)cc1	> 20 µM (inactive)
O=C(Nc1ccc2nc(-c3ccccc3)c(-c3ccccc3)nc2c1)OCc1ccccc1	> 20 µM (inactive)
Fc1ccc(-c2nc3nc(-c4ccccc4)cn3nc2-c2ccc(F)cc2)cc1	8.9 µM
COc1cccc(-c2cn3nc(-c4ccc(F)cc4)c(-c4ccc(F)cc4)nc3n2)c1	7.9 µM
CC(C)OC(=O)Nc1ccc2nc(-c3cccs3)c(-c3cccs3)nc2c1	> 20 µM (inactive)
CC(Oc1ccccc1)C(=O)Nc1ccc2nc(-c3ccccc3)c(-c3ccccc3)nc2c1 (configuration not stated)	> 20 µM (inactive)
CCCS(=O)(=O)Nc1ccc2nc(-c3ccccc3)c(-c3ccccc3)nc2c1	> 20 µM (inactive)
O=C(Nc1ccc2nc(-c3ccccc3)c(-c3ccccc3)nc2c1)NC1CCCC1	> 20 µM (inactive)
O=C(Nc1ccc2nc(-c3cccs3)c(-c3cccs3)nc2c1)C1CCCC1	> 20 µM (inactive)
CCNC(=O)Nc1ccc2nc(-c3ccccc3)c(-c3ccccc3)nc2c1	> 20 µM (inactive)

Compound	EC50
O=C(Nc1ccc2nc(-c3cccs3)c(-c3cccs3)nc2c1)C1CC1	> 20 µM (inactive)
CCCNC(=O)Nc1ccc2nc(-c3ccccc3)c(-c3ccccc3)nc2c1	> 20 µM (inactive)
O=C(Nc1ccc2nc(-c3ccccc3)c(-c3ccccc3)nc2c1)C1CCCCC1	> 20 µM (inactive)
FC(F)(F)Oc1ccc(-c2cn3nc(-c4ccccc4)c(-c4ccccc4)nc3n2)cc1	> 20 µM (inactive)
COC(=O)Nc1ccc2nc(-c3ccccc3)c(-c3ccccc3)nc2c1	> 20 µM (inactive)
Cc1ccc(-c2nc3nc(-c4ccc(C#N)cc4)cn3nc2-c2ccc(C)cc2)cc1	11.2 µM
CC(C)(C)NC(=O)Nc1ccc2nc(-c3ccccc3)c(-c3ccccc3)nc2c1	> 20 µM (inactive)
COC(=O)Nc1ccc2nc(-c3cccs3)c(-c3cccs3)nc2c1	> 20 µM (inactive)
COc1ccccc1-c1cn2nc(-c3ccc(F)cc3)c(-c3ccc(F)cc3)nc2n1	5.7 µM
COc1cccc(-c2cn3nc(-c4ccccc4)c(-c4ccccc4)nc3n2)c1	> 20 µM (inactive)
Cc1ccc(-c2nc3nc(-c4ccc(F)cc4)cn3nc2-c2ccc(C)cc2)cc1	> 20 µM (inactive)
COc1ccc(-c2cn3nc(-c4ccccc4)c(-c4ccccc4)nc3n2)c(OC)c1	> 20 µM (inactive)
O=C(Nc1ccc2nc(-c3ccccc3)c(-c3ccccc3)nc2c1)C1CC1	> 20 µM (inactive)
CCCOC(=O)Nc1ccc2nc(-c3ccccc3)c(-c3ccccc3)nc2c1	> 20 µM (inactive)
CCOC(=O)Nc1ccc2nc(-c3cccs3)c(-c3cccs3)nc2c1	> 20 µM (inactive)
O=C(Nc1ccc2nc(-c3cccs3)c(-c3cccs3)nc2c1)OCc1ccccc1	> 20 µM (inactive)
CC(C)NC(=O)Nc1ccc2nc(-c3ccccc3)c(-c3ccccc3)nc2c1	> 20 µM (inactive)
CCOC(=O)Nc1ccc2nc(-c3ccccc3)c(-c3ccccc3)nc2c1	> 20 µM (inactive)
COc1ccccc1-c1cn2nc(-c3ccccc3)c(-c3ccccc3)nc2n1	> 20 µM (inactive)
Fc1ccc(-c2nc3nc(-c4ccc(OC(F)(F)F)cc4)cn3nc2-c2ccc(F)cc2)cc1	> 20 µM (inactive)
COc1ccc(-c2nc3nc(-c4ccc(OC(F)(F)F)cc4)cn3nc2-c2ccc(OC)cc2)cc1	> 20 µM (inactive)

Compound	EC50
CC(C)CS(=O)(=O)Nc1ccc2nc(-c3cccs3)c(-c3cccs3)nc2c1	> 20 µM (inactive)
Cc1ccc(-c2cn3nc(-c4ccc(C)cc4)c(-c4ccc(C)cc4)nc3n2)cc1	> 20 µM (inactive)
CCC(=O)Nc1ccc2nc(-c3ccccc3)c(-c3ccccc3)nc2c1	> 20 µM (inactive)
COc1ccccc1-c1cn2nc(-c3ccc(C)cc3)c(-c3ccc(C)cc3)nc2n1	> 20 µM (inactive)
CCNC(=S)Nc1ccc2nc(-c3ccccc3)c(-c3ccccc3)nc2c1	> 20 µM (inactive)
CC(=O)Nc1ccc2nc(-c3ccccc3)c(-c3ccccc3)nc2c1	> 20 µM (inactive)
CCCCOC(=O)Nc1ccc2nc(-c3cccs3)c(-c3cccs3)nc2c1	> 20 µM (inactive)
CCS(=O)(=O)Nc1ccc2nc(-c3ccccc3)c(-c3ccccc3)nc2c1	> 20 µM (inactive)
O=C(Nc1ccc2nc(-c3ccccc3)c(-c3ccccc3)nc2c1)C1CCC1	> 20 µM (inactive)
N#Cc1ccc(-c2cn3nc(-c4ccc(F)cc4)c(-c4ccc(F)cc4)nc3n2)cc1	> 20 µM (inactive)
CCC(=O)Nc1ccc2nc(-c3cccs3)c(-c3cccs3)nc2c1	> 20 µM (inactive)
COc1ccc(-c2cn3nc(-c4ccc(C)cc4)c(-c4ccc(C)cc4)nc3n2)c(OC)c1	> 20 µM (inactive)
COc1ccc(-c2nc3nc(-c4ccc(F)cc4)cn3nc2-c2ccc(OC)cc2)cc1	> 20 µM (inactive)
CCCOC(=O)Nc1ccc2nc(-c3cccs3)c(-c3cccs3)nc2c1	> 20 µM (inactive)
COc1cccc(-c2cn3nc(-c4ccc(C)cc4)c(-c4ccc(C)cc4)nc3n2)c1	> 20 µM (inactive)
O=S(=O)(Nc1ccc2nc(-c3cccs3)c(-c3cccs3)nc2c1)C1CC1	> 20 µM (inactive)
Fc1ccc(-c2cn3nc(-c4ccccc4)c(-c4ccccc4)nc3n2)cc1	> 20 µM (inactive)
Fc1cccc(-c2cn3nc(-c4ccccc4)c(-c4ccccc4)nc3n2)c1	18 µM
Cc1ccc(-c2nc3nc(-c4ccc(S(C)(=O)=O)cc4)cn3nc2-c2ccc(C)cc2)cc1	> 20 µM (inactive)
COc1ccc(-c2nc3nc(-c4ccc(C#N)cc4)cn3nc2-c2ccc(OC)cc2)cc1	> 20 µM (inactive)
COc1ccc(-c2nc3nc(-c4ccc(OC)cc4OC)cn3nc2-c2ccc(OC)cc2)cc1	> 20 µM (inactive)

Compound	EC50
Fc1ccc(-c2cn3nc(-c4ccc(F)cc4)c(-c4ccc(F)cc4)nc3n2)cc1	4 µM
CS(=O)(=O)c1ccc(-c2cn3nc(-c4ccc(F)cc4)c(-c4ccc(F)cc4)nc3n2)cc1	> 20 µM (inactive)
CCCCOC(=O)Nc1ccc2nc(-c3ccccc3)c(-c3ccccc3)nc2c1	> 20 µM (inactive)
COc1ccc(-c2cn3nc(-c4ccc(C)cc4)c(-c4ccc(C)cc4)nc3n2)cc1	> 20 µM (inactive)
O=C(Nc1ccc2nc(-c3cccs3)c(-c3cccs3)nc2c1)C1CCC1	> 20 µM (inactive)
O=C(Nc1ccc2nc(-c3ccccc3)c(-c3ccccc3)nc2c1)C1CCCC1	> 20 µM (inactive)
COc1ccc(-c2cn3nc(-c4ccc(F)cc4)c(-c4ccc(F)cc4)nc3n2)cc1	> 20 µM (inactive)
CC(C)CS(=O)(=O)Nc1ccc2nc(-c3ccccc3)c(-c3ccccc3)nc2c1	> 20 µM (inactive)
CC(C)OC(=O)Nc1ccc2nc(-c3ccccc3)c(-c3ccccc3)nc2c1	> 20 µM (inactive)
CS(=O)(=O)c1ccc(-c2cn3nc(-c4ccccc4)c(-c4ccccc4)nc3n2)cc1	> 20 µM (inactive)
Clc1ccc(-c2cn3nc(-c4ccccc4)c(-c4ccccc4)nc3n2)c(Cl)c1	> 20 µM (inactive)
COc1ccc(-c2nc3nc(-c4cccc(F)c4)cn3nc2-c2ccc(OC)cc2)cc1	4.4 µM
Cc1ccc(-c2cn3nc(-c4ccc(F)cc4)c(-c4ccc(F)cc4)nc3n2)cc1	> 20 µM (inactive)
COc1ccc(-c2nc3nc(-c4ccccc4)cn3nc2-c2ccc(OC)cc2)cc1	> 20 µM (inactive)
CCNC(=O)Nc1ccc2nc(-c3cccs3)c(-c3cccs3)nc2c1	> 20 µM (inactive)
O=S(=O)(Nc1ccc2nc(-c3ccccc3)c(-c3ccccc3)nc2c1)C1CC1	> 20 µM (inactive)
COc1ccc(-c2cn3nc(-c4ccc(OC)cc4)c(-c4ccc(OC)cc4)nc3n2)cc1	> 20 µM (inactive)
CC(C)(C)C(=O)Nc1ccc2nc(-c3ccccc3)c(-c3ccccc3)nc2c1	> 20 µM (inactive)
Cc1ccc(-c2nc3nc(-c4ccc(OC(F)(F)F)cc4)cn3nc2-c2ccc(C)cc2)cc1	> 20 µM (inactive)
